In ChEMBL document CHEMBL4261648, “Lobaric acid and pseudodepsidones inhibit NF-κB signaling pathway by activation of PPAR-γ” (Bioorg Med Chem, 2018):
The source made the active and inactive calls. No cut-off for these calls is given here.

Key:
[1] = Cytotoxicity against PMA-differentiated human U937 macrophages assessed as cell viability at 10 uM after 24 hrs by MTT assay relative to untreated control; assay type: cell-based, U-937; conditions: read-out: Activity
[2] = molecular target: Toll-like receptor 4 (Homo sapiens) (UniProt O00206); assay: (§1) Inhibition of TLR4 in human U937-3xkappaB-LUC cells assessed as inhibition of Aggregatibacter actinomycetemcomitans LPS-induced NF-kappaB activation at 10 uM preincubated for 30 mins followed by LPS stimulation and measured after 6 hrs post LPS challenge by Bright-Glo luciferase reporter gene assay relative to control
Sequence of Toll-like receptor 4 (Homo sapiens) (O00206 whole entry): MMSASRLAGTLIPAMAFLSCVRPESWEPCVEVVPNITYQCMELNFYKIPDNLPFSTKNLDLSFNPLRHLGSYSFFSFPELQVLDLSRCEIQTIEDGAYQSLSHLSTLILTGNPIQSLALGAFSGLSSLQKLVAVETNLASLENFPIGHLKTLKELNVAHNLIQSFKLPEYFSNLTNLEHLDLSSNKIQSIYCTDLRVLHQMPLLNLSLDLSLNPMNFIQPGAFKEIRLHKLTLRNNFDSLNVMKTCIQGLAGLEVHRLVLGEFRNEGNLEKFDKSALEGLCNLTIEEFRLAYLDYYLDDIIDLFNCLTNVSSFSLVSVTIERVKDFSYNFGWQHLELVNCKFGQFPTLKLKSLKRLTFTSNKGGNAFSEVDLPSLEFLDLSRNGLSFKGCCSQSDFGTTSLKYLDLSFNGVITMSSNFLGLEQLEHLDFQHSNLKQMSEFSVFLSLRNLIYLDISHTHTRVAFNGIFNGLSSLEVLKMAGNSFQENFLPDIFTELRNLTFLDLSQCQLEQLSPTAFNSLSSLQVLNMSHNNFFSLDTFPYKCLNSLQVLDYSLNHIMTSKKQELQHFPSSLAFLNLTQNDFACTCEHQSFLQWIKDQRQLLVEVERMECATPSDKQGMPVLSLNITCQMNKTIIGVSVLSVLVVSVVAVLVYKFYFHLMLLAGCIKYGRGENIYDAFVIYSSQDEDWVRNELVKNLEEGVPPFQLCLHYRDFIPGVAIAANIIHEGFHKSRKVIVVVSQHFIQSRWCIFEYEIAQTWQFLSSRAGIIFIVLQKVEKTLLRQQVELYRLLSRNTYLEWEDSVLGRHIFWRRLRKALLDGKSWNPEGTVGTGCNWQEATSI

[3] = molecular target: Toll-like receptor 4 (Homo sapiens) (UniProt O00206); assay: as §1, with “activation” for “activation at 10 uM”
[4] = Cytotoxicity against PMA-differentiated human U937 macrophages assessed as cell viability at 40 uM after 24 hrs by MTT assay relative to untreated control; assay type: cell-based, U-937; conditions: read-out: Activity
U-937 [5] = assay: Antiinflammatory activity in PMA-differentiated human U937 cells assessed as inhibition of LPS-induced TNFalpha secretion at 20 uM preincubated for 2 hrs followed by LPS stimulation and measured after 24 hrs post LPS challenge by ELISA relative to control; assay type: functional
U-937 [6] = assay: Antiinflammatory activity in PMA-differentiated human U937 cells assessed as inhibition of LPS-induced TNFalpha secretion at 80 uM preincubated for 2 hrs followed by LPS stimulation and measured after 24 hrs post LPS challenge by ELISA relative to control; assay type: functional
[7] = molecular target: Toll-like receptor 4 (Homo sapiens) (UniProt O00206); assay: as §1, with “20” for “10”
U-937 [8] = assay: Antiinflammatory activity in PMA-differentiated human U937 cells assessed as inhibition of LPS-induced TNFalpha secretion at 10 uM preincubated for 2 hrs followed by LPS stimulation and measured after 24 hrs post LPS challenge by ELISA relative to control; assay type: functional
[9] = Cytotoxicity against PMA-differentiated human U937 macrophages assessed as cell viability at 80 uM after 24 hrs by MTT assay relative to untreated control; assay type: cell-based, U-937; conditions: read-out: Activity
[10] = Cytotoxicity against PMA-differentiated human U937 macrophages assessed as cell viability at 20 uM after 24 hrs by MTT assay relative to untreated control; assay type: cell-based, U-937; conditions: read-out: Activity
U-937 [11] = assay: Antiinflammatory activity in human U937 cells assessed as inhibition of LPS-induced IL-6 production at 10 to 80 uM preincubated for 2 hrs followed by LPS stimulation and measured after 24 hrs post LPS challenge by ELISA; assay type: functional, cell-based
[12] = molecular target: Toll-like receptor 4 (Homo sapiens) (UniProt O00206); assay: as §1, with “50” for “10”
U-937 [13] = assay: Antiinflammatory activity in PMA-differentiated human U937 cells assessed as inhibition of LPS-induced TNFalpha secretion at 40 uM preincubated for 2 hrs followed by LPS stimulation and measured after 24 hrs post LPS challenge by ELISA relative to control; assay type: functional
[14] = molecular target: Toll-like receptor 4 (Homo sapiens) (UniProt O00206); assay: as §1, with “5” for “10”
U-937 [15] = assay: Antiinflammatory activity in human U937 cells assessed as inhibition of LPS-induced IL-1beta production at 10 to 80 uM preincubated for 2 hrs followed by LPS stimulation and measured after 24 hrs post LPS challenge by ELISA; assay type: functional, cell-based
U-937 [16] = assay: Antiinflammatory activity in human U937 cells assessed as inhibition of LPS-induced IL-8 production preincubated for 2 hrs followed by LPS stimulation and measured after 24 hrs post LPS challenge by ELISA; assay type: functional
[17] = molecular target: T1, Peroxisome proliferator-activated receptor gamma (Homo sapiens) (UniProt P37231); assay: Binding affinity to recombinant human PPARgamma LBD at 40 uM by TR-FRET based green polar-screen PPAR competitor assay
T1 sequence (whole entry): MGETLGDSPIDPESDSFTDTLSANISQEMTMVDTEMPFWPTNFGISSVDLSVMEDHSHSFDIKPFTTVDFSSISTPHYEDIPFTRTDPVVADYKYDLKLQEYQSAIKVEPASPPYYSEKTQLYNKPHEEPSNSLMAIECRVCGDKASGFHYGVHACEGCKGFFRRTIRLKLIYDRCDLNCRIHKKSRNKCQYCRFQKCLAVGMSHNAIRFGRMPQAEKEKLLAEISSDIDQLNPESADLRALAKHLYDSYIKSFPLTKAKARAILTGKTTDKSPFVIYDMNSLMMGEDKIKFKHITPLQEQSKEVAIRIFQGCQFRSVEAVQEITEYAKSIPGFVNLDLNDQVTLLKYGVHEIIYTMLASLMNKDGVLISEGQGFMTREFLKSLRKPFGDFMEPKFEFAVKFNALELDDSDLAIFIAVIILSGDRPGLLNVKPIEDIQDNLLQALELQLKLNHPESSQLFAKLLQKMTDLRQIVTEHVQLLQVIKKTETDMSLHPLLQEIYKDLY

U-937 [18] = assay: Antiinflammatory activity in human U937 cells assessed as inhibition of LPS-induced IL-1beta production preincubated for 2 hrs followed by LPS stimulation and measured after 24 hrs post LPS challenge by ELISA; assay type: functional, cell-based
U-937 [19] = assay: Antiinflammatory activity in human U937 cells assessed as inhibition of LPS-induced IL-6 production at 40 to 80 uM preincubated for 2 hrs followed by LPS stimulation and measured after 24 hrs post LPS challenge by ELISA; assay type: functional, cell-based
U-937 [20] = assay: Antiinflammatory activity in human U937 cells assessed as inhibition of LPS-induced IL-1beta production at 20 uM preincubated for 2 hrs followed by LPS stimulation and measured after 24 hrs post LPS challenge by ELISA; assay type: functional, cell-based
U-937 [21] = assay: Antiinflammatory activity in human U937 cells assessed as inhibition Aggregatibacter actinomycetemcomitans LPS-induced IL-1beta secretion at 10 to 80 uM preincubated for 2 hrs followed by LPS stimulation and measured after 24 hrs post LPS challenge by ELISA; assay type: functional, cell-based
U-937 [22] = assay: Antiinflammatory activity in human U937 cells assessed as inhibition of Escherichia coli LPS-induced IL-1beta secretion at 10 to 80 uM preincubated for 2 hrs followed by LPS stimulation and measured after 24 hrs post LPS challenge by ELISA; assay type: functional, cell-based
U-937 [23] = assay: Antiinflammatory activity in human U937 cells assessed as inhibition of LPS-induced IL-8 production at 40 to 80 uM preincubated for 2 hrs followed by LPS stimulation and measured after 24 hrs post LPS challenge by ELISA; assay type: functional, cell-based
U-937 [24] = assay: Antiinflammatory activity in human U937 cells assessed as inhibition of LPS-induced IL-8 production at 10 to 20 uM preincubated for 2 hrs followed by LPS stimulation and measured after 24 hrs post LPS challenge by ELISA; assay type: functional, cell-based
[25] = molecular target: Toll-like receptor 4 (Homo sapiens) (UniProt O00206); assay: as §1, with “Escherichia coli” for “Aggregatibacter actinomycetemcomitans”, “5 to 50” for “10”
U-937 [26] = assay: Antiinflammatory activity in human U937 cells assessed as inhibition Aggregatibacter actinomycetemcomitans LPS-induced TNFalpha secretion at 10 to 80 uM preincubated for 2 hrs followed by LPS stimulation and measured after 24 hrs post LPS challenge by ELISA; assay type: functional, cell-based
U-937 [27] = assay: Antiinflammatory activity in human U937 cells assessed as inhibition of Escherichia coli LPS-induced TNFalpha secretion at 10 to 80 uM preincubated for 2 hrs followed by LPS stimulation and measured after 24 hrs post LPS challenge by ELISA; assay type: functional, cell-based
[28] = molecular target: Toll-like receptor 4 (Homo sapiens) (UniProt O00206); assay: as §1, with “5 to 50” for “10”
U-937 [29] = assay: Antiinflammatory activity in human U937 cells assessed as inhibition of LPS-induced IL-8 production at 20 uM preincubated for 2 hrs followed by LPS stimulation and measured after 24 hrs post LPS challenge by ELISA; assay type: functional, cell-based

| Compound | viability at 24 h, 10 µM [1] | inhibition [2] | inhibition [3] | viability at 24 h, 40 µM [4] | inhibition at 20 µM (U-937 [5]) | inhibition at 80 µM (U-937 [6]) | inhibition [7] | inhibition at 10 µM (U-937 [8]) | viability at 24 h, 80 µM [9] | viability at 24 h, 20 µM [10] | inhibition [12] | inhibition at 40 µM (U-937 [13]) | inhibition [14] | Activity [17] | further results |
| --- | --- | --- | --- | --- | --- | --- | --- | --- | --- | --- | --- | --- | --- | --- | --- |
| CCC/C=C1\OC(=O)c2cc(Oc3c(O)cc(O)cc3CCCCC)c(OC)cc21 | 117% | 28% | Dose-dependent effect | 38% | 0% | 100% | 60% | 0% | 10% | 101% | 99% | 90% | 26% |  | inhibition (U-937 [11]): inactive; inhibition (U-937 [15]): inactive |
| COC(=O)c1c(C)cc(O)c(C=O)c1O [METHYL HAEMATOMMATE] | 119% | 24% |  | 102% | 3% | 80% | 38% | 0% | 82% | 102% | 67% | 41% | 17% |  | inhibition (U-937 [16]): Dose-dependent effect |
| CCCCCc1cc(O)cc(O)c1Oc1cc(OC)cc(C(=O)CCCC)c1C(=O)OC | 119% | 39% |  | 85% | 0% | 55% | 52% | 0% | 66% | 105% | 52% | 0% | 23% | Active |  |
| CCCCCc1cc(O)cc(O)c1Oc1cc2c(cc1OC)C(CCCC)(OC)OC2=O (configuration not stated) | 116% | 15% |  | 87% | 0% | 100% | 29% | 0% | 24% | 96% | 34% | 0% | 12% |  |  |
| CCCCCc1c(Oc2cc3c(cc2OC)C(CCCC)(OC)OC3=O)c(O)cc(O)c1C(=O)O (configuration not stated) | 126% | 39% |  | 121% | 0% | 100% | 63% | 0% | 52% | 131% | 84% | 3% | 27% |  |  |
| CCCCCc1cc(O)cc(O)c1Oc1cc(OC)cc2c1C(=O)OC2(O)CCCC (configuration not stated) | 118% | 29% |  | 122% | 0% | 7% | 48% | 0% | 114% | 124% | 36% | 0% | 26% | Active |  |
| CN(CCOc1ccc(CC2SC(=O)NC2=O)cc1)c1ccccn1 (configuration not stated) |  |  |  |  |  |  |  |  |  |  |  |  |  | Active |  |
| CCCCCc1c(Oc2cc(OC)cc(C(=O)CCCC)c2C(=O)OC)c(O)cc(O)c1C(=O)O | 96% | 52% | Dose-dependent effect | 67% | 0% | 100% | 75% | 0% | 48% | 86% | 98% | 55% | 37% | Active | inhibition (U-937 [18]): Dose-dependent effect; inhibition (U-937 [19]): Active; inhibition (U-937 [20]): inactive; inhibition (U-937 [21]): Active; inhibition (U-937 [22]): Active; inhibition (U-937 [23]): Active; inhibition (U-937 [24]): inactive; inhibition [25]: Active; inhibition (U-937 [26]): Active; inhibition (U-937 [27]): Active; inhibition [28]: Active |
| CCCCCc1c2c(cc(O)c1C(=O)O)OC(=O)c1c(cc(OC)cc1C(=O)CCCC)O2 [LOBARIC ACID] | 118% | 42% | Dose-dependent effect | 73% | 89% | 100% | 78% | 1% | 90% | 121% | 99% | 100% | 29% | Active | inhibition (U-937 [18]): Dose-dependent effect; inhibition (U-937 [29]): inactive; inhibition (U-937 [19]): Active; inhibition (U-937 [21]): Dose-dependent effect; inhibition (U-937 [22]): Dose-dependent effect; inhibition (U-937 [23]): Active; inhibition (U-937 [24]): inactive; inhibition [25]: Dose-dependent effect; inhibition (U-937 [26]): Dose-dependent effect; inhibition (U-937 [27]): Dose-dependent effect; inhibition [28]: Dose-dependent effect |
| COC(=O)c1c(C)cc(O)c(C)c1O [ATRARIC ACID] | 112% | 19% |  | 116% | 0% | 0% | 36% | 0% | 125% | 118% | 25% | 0% | 27% | inactive |  |
